# Laboratory results published in US20230270764A1, “COMPOSITION COMPRISING CANNABINOIDS, TERPENES, AND FLAVONOIDS FOR TREATING DEPRESSION” (priority 2020, published 2023).
# Legend:
# BV2 microglial cells [1] = assay: α-synuclein-induced TNFα secretion by BV2 microglia cell cultures; format: cell-based, murine; details: Mus musculus
# Method: (§1) The BV2 cells are cultured at 37° C. in a humidified atmosphere with 5% CO2 in high D-glucose (4.5 g/L) Dulbecco’s modified Eagle’s medium (Sigma, Rehovot, Israel) supplemented with 5% heat-inactivated fetal bovine serum, streptomycin (100 µg/ml), and penicillin (100 units/ml) and sodium pyruvate (1 mM; all from Biological Industries Ltd., Kibbutz Beit Haemek, Israel). 24 hours before experiments with LPS stimulation, the BV2 cells are split into 24 well plates, 2×10^5 cells per well, covered with 1 ml of growth medium and allowed to attach overnight. 24 hr before experiments with α-synuclein, the BV2 cells are split into 96-well plates, 50,000 (5×10^4) cells per well, covered with 200 µl of growth medium and allowed to attach overnight. Cultures of BV2 microglia cells are first treated by an individual cannabinoid, or terpene or flavonoid selected from: Cannabidiol (CBD), Δ-9-tetrahydrocannabinol (THC), Δ-8-tetrahydrocannabinol (THC), cannabigerol (CBG), cannabichromene (CBC), cannabigerolic acid (CBGA), Cannabidiolic acid (CBDA), THC acid (THCA), cannabichromenic Acid (CBCA), Cannabidivarin (CBDV), tetrahydrocannabivarin (THCV), Cannabichromevarin (CBCV), Cannabichromerocin ([…]), Cannabivarin (CBV), Cannabicitran (CBT), Cannabinol (CBN), Cannabicyclol (CBL), Cannabigerorcin (CBGO), Cannabinodiol (CBND), β-caryophyllene, β-elemene, β-myrcene, linalool, α-pinene, β-pinene, eucalyptol, alpha-terpineol, valencene, geraniol (lemonol), bisabolol, nerolidol, ocimene, terpinolene, humulene, α-terpinene, camphene, fenchol, α-phellandrene, Δ3-carene, γ-cardinene, sabinene, limonene, β-amyrin, cycloartenol, cannflavin A, cannflavin B, kaempferol, quercetin, luteolin, apigenin, canniprene, orientin, β-sitosterol, vitexin, isovitexin, and chrysin. Additional cultures of BV2 microglia cells are treated by an individual cannabinoid, with at least one additional cannabinoid, and/or terpene, and/or flavonoid, and/or celecoxib. Additional cultures are exposed to the vehicle of these compounds (cremophor, ethanol and PBS, 1:1:18 (v/v/v)) (FIG. 2A). In some studies, cultures of BV2 microglia cells are treated by a specific whole plant cannabis extract, with or without supplementation with cannabinoid(s), and/or terpene(s) and/or flavonoid(s), and/or celecoxib (FIG. 2B).
# For each individual cannabinoid mentioned above, 3-4 concentrations are used, ranging from 0.1 to 10 µM. For ultra-low dose Δ9-THC the concentration used is 0.01 µM. For each individual terpene or flavonoid mentioned above, 3-4 concentrations are used, ranging from 1 to 50 µM. For celecoxib, 3-4 concentrations are used, ranging from 0.1 to 10 µM. Two hours following the treatment, the cultures are exposed to one of the following microglia stimulators: LPS (Sigma L2630; Escherichia coli serotype O111:B4) is dissolved in D-PBS (Sigma, D8537) to a pre-stock concentration of 1 mg/ml, aliquoted and stored at -80° C. Stock solution of LPS at 10 ug/ml is prepared using sterile D-PBS, followed by filtering via 0.22 µm filter membrane, aliquoting and storing in -20° C. LPS is applied into the cell medium at a final concentration of 100 ng/ml. Poly I:C (Sigma, P1530) was first dissolved in sterile, molecular grade water to the concentration of 10 mg/ml (following the manufacturer’s instructions). This stock solution was further diluted to the concentration of 1 mg/ml in sterile PBS, and the aliquots stored in -20 °C. […] To induce oligomerization, α-Synuclein solution is placed for 24 hours on a shaker with agitation of 80 rpm and at 37° C.
# BV2 microglial cells [2] = assay: LPS-induced TNFα secretion by BV2 microglia cell cultures (ELISA); format: cell-based, murine; details: for effect on lipopolysaccharide-induced TNFα secretion: THC 0.1, 0.5 and 1 µM, CBDA 0.2, 1 and 2 µM, CBC 0.1, 1 and 2 µM, α-pinene, β-pinene, limonene 25 or 100 µM; for levels of TNFα compared to cultures treated with vehicle and LPS: 24-hours incubation, CBD 10 but not 1 µM, linalool 100 but not 25 µM, kaempferol dose-dependently at 10, 25 and 50 µM, quercetin 10 and 25 but not 5 µM; for IC50: Mus musculus, BV-2, read-out: IC50 for inhibiting LPS-induced TNFα release
# Method: (§2) The BV2 murine microglial cell line is used in these studies.
# as §1
# For each individual cannabinoid mentioned above, 3-4 concentrations are used, ranging from 0.1 to 10 µM. For ultra-low dose Δ9-THC the concentration used is 0.01 µM. […] For celecoxib, 3-4 concentrations are used, ranging from 0.1 to 10 µM. Two hours following the treatment, the cultures are exposed to one of the following microglia stimulators: LPS (Sigma L2630; Escherichia coli serotype O111:B4) is dissolved in D-PBS (Sigma, D8537) to a pre-stock concentration of 1 mg/ml, aliquoted and stored at -80° C. Stock solution of LPS at 10 ug/ml is prepared using sterile D-PBS, followed by filtering via 0.22 µm filter membrane, aliquoting and storing in -20° C. LPS is applied into the cell medium at a final concentration of 100 ng/ml. Poly I:C (Sigma, P1530) was first dissolved in sterile, molecular grade water to the concentration of 10 mg/ml (following the manufacturer’s instructions). This stock solution was further diluted to the concentration of 1 mg/ml in sterile PBS, and the aliquots stored in -20 °C.
# BV2 microglial cells [3] = assay: LPS-induced IL-1β release by BV2 microglia cell cultures (ELISA); format: cell-based, murine
# Method: as §2, §1
# (§3) For each individual cannabinoid mentioned above, 3-4 concentrations are used, ranging from 0.1 to 10 µM. For ultra-low dose Δ9-THC the concentration used is 0.01 µM. For each individual terpene or flavonoid mentioned above, 3-4 concentrations are used, ranging from 1 to 50 µM. For celecoxib, 3-4 concentrations are used, ranging from 0.1 to 10 µM. Two hours following the treatment, the cultures are exposed to one of the following microglia stimulators: LPS (Sigma L2630; Escherichia coli serotype O111:B4) is dissolved in D-PBS (Sigma, D8537) to a pre-stock concentration of 1 mg/ml, aliquoted and stored at -80° C. Stock solution of LPS at 10 ug/ml is prepared using sterile D-PBS, followed by filtering via 0.22 µm filter membrane, aliquoting and storing in -20° C. LPS is applied into the cell medium at a final concentration of 100 ng/ml. Poly I:C (Sigma, P1530) was first dissolved in sterile, molecular grade water to the concentration of 10 mg/ml (following the manufacturer’s instructions). This stock solution was further diluted to the concentration of 1 mg/ml in sterile PBS, and the aliquots stored in -20 °C.
# LPS-injected mice = assay: Body weight change and food consumption in the LPS-induced model of depression; format: in vivo; details: Example 9; male C57BL/6, i.p. 1 h before LPS 330 µg/kg; mg/kg: CBD 30; CBD 30 plus THC 10; cannabinol 10; CBD 30 plus BCP 50
# Description: Animals were housed 2-3/cage, kept in an air-conditioned room (23+°C) and given ad libitum access to food and water. The mice were kept in a reversed light/dark cycle, with lights off from 7 a.m. to 7 p.m. All experiments were approved by the Hebrew University of Jerusalem Ethics Committee on Animal Care and Use. In preparation for the Sucrose Preference Test, mice were habituated 2-3 times to sucrose drinking, by exposing them overnight to two graduated tubes, one containing water and the other containing sucrose solution (1%, w/v). Water and sucrose consumption were measured, and sucrose preference was computed by dividing the amount of sucrose consumed by drinking (ml sucrose) by the total drinking volume (ml of sucrose + water). One day later, the weight of the mice and the food in their cages was weighed for later analysis of food consumption and body weight changes. Groups of mice were injected intraperitoneally (i.p.) with either vehicle (cremophor, ethanol and PBS, 1:1:18 (v/v/v)) or a cannabinoid-based formulation (by itself or with another cannabinoid, or a terpene or a flavonoid). One hour later, each of these groups was injected with LPS (330 µg/kg). All injections were administered at a dose of 10 ml/kg. Four hours following the LPS injection, mice were tested in the Open-Field Test. In this test, the measured locomotor activity reflects not only motor capacity, but particularly the innate motivation for spatial exploration (which increases the distance travelled) and the anxiety level (which reduces the distance travelled, in general, and particularly the distance and time spent in the center of the open field). Each subject was placed near one of the walls of a white 50 X 50 cm^2 arena with 40 cm high walls. The distance travelled (cm), the velocity of the movement (cm/second), the time spent (seconds), distance travelled (cm) in the center area of the arena, as well as the number of entries from the perimeter area into the center of the arena were automatically measured over a 4-minute period, using EthoVision XT video tracking system and software (Noldus, The Netherlands). Twenty-four hours after the LPS injection, mice were tested in the Social Exploration Test. In this test, the subject was placed in an observation cage containing a small metal wire mesh cage with a conspecific mouse inside it. Social exploration, defined as the time of near contact between the nose of the subject and the juvenile in the small cage was recorded for 4 min, using computerized in-house software. Sucrose preference was assessed, as described above, between 8 to 27 hr post LPS injection. Body weight and weight of the food were measured two hours before the LPS injection, and again after 24 hours, and the change in body weight and food consumption were calculated.
# This particular study was conducted in several experimental cohorts, and not all compounds and all measures were studied in all cohort. However, each cohort included a vehicle-treated group; therefore, the scores in each behavioral test were converted to % of mean vehicle-treated group in every individual cohort/experiment. Statistical comparisons were computed using SPSS software and consisted of one-way analyses of variance (ANOVA), followed by post-hoc comparisons with the Student-Newman-Keuls method.
# BV2 microglial cells [4] = assay: LPS-induced IL-6 release by BV2 microglia cell cultures (ELISA); format: cell-based, murine
# Method: as §2, §1, §3
structure (smiles),measurement,setting,value
Cc1ccc(-c2cc(C(F)(F)F)nn2-c2ccc(S(N)(=O)=O)cc2)cc1 [celecoxib],IC50,"BV2 microglial cells [1]; BV-2, Example 8 (FIG. 9B), by itself, read-out: IC50, α-synuclein-induced TNFα release",4.2 µM
same,IC50,"BV2 microglial cells [1]; BV-2, addition of 1 µM CBD, read-out: celecoxib IC50, α-synuclein-induced TNFα release",2 µM
same,IC50,"BV2 microglial cells [1]; BV-2, addition of 2.5 µM CBD, read-out: celecoxib IC50, α-synuclein-induced TNFα release",1.7 µM
same,IC50,"BV2 microglial cells [1]; BV-2, addition of 5 µM CBD, read-out: celecoxib IC50, α-synuclein-induced TNFα release",1.1 µM
"CCCCCc1cc(O)c2c(c1)OC(C)(C)[C@@H]1CCC(C)=C[C@@H]21 [THC, Δ-9 tetrahydrocannabinol]",effect on lipopolysaccharide-induced TNFα secretion,BV2 microglial cells [2],no effect
O=c1c(O)c(-c2ccc(O)c(O)c2)oc2cc(O)cc(O)c12 [quercetin],levels of TNFα compared to cultures treated with vehicle and LPS,BV2 microglial cells [2],reduced
same,release of TNFα vs LPS-activated cultures treated with vehicle,"BV2 microglial cells [2]; Example 5, by themselves, CBD 1 and 2.5 µM, quercetin 1, 2.5 and 5 µM",did not affect
same,IC50,BV2 microglial cells [2],6.2 µM
same,IL-1β release vs Veh plus LPS,"BV2 microglial cells [3]; Example 5, alone at 5 µM, no effect at 1 and 2.5 µM",significantly decreased IL-1β levels
same,IC50,"BV2 microglial cells [3]; Mus musculus, BV-2, Example 5 (FIG. 6D), by itself, read-out: IC50 for inhibiting LPS-induced IL-1β release",2.6 µM
CC1=CCC2CC1C2(C)C (stereo not drawn) [α-pinene],effect on lipopolysaccharide-induced TNFα secretion,BV2 microglial cells [2],no effects
"CCCCCc1cc(O)c2c(c1)OC(C)(CCC=C(C)C)C=C2 (stereo not shown) [CBC, cannabichromene]",effect on lipopolysaccharide-induced TNFα secretion,BV2 microglial cells [2],no effect
CCCCCc1cc(O)c2c(c1)OC(C)(C)c1ccc(C)cc1-2 [cannabinol],food consumption over 24 hr vs vehicle-treated group,LPS-injected mice,consumed significantly less food
C=C1CCC2CC1C2(C)C (stereo not drawn) [β-pinene],effect on lipopolysaccharide-induced TNFα secretion,BV2 microglial cells [2],no effects
C=C(C)[C@H]1CC=C(C)CC1 [limonene],effect on lipopolysaccharide-induced TNFα secretion,BV2 microglial cells [2],no effects
"C=C(C)[C@@H]1CCC(C)=C[C@H]1c1c(O)cc(CCC)cc1O [CBDV, cannabidivarin]",times less potent than CBD in inhibiting TNFα release,"BV2 microglial cells [2]; Example 6, IC50 comparison",~6 times
same,release of TNFα vs LPS-activated cultures treated with vehicle,"BV2 microglial cells [2]; Example 6, by itself, CBD 1, 2.5 and 5 µM, CBDV 1, 2.5, 5 and 10 µM",no concentration of either CBD or CBDV by itself affected release of TNFα
same,IC50,BV2 microglial cells [2],27.9 µM
same,IL-6 secretion vs Veh plus LPS,"BV2 microglial cells [4]; Example 6, CBD or CBDV given by themselves",no significant effect
same,times less potent than CBD in inhibiting IL-6 release,"BV2 microglial cells [4]; Example 6, IC50 comparison",about 2 times
same,IC50,"BV2 microglial cells [4]; Mus musculus, BV-2, Example 6 (FIG. 7D), by itself, read-out: IC50 for inhibiting LPS-induced IL-6 release",9.6 µM
C=CC(C)(O)CCC=C(C)C (stereo not shown) [linalool],levels of TNFα compared to cultures treated with vehicle and LPS,BV2 microglial cells [2],reduced
